According to article PMC2823129 (Lipids, 2009):

Tested on: mitochondrial GPAT (GPAT1-like)
Assay: […]glycerol-3-phosphate incorporation into organic phase, liquid scintillation
Format: biochemical, Macrobrachium borellii
Conditions: read-out: apparent Km; mitochondrial fraction; 0.8 mM glycerol-3-phosphate, 4 mM MgCl2, 2 mg/ml BSA, 8 mM NaF, 1 mM DTT, 75 mM Tris-HCl pH 7.4, 30°C

Question: `CCCCCCCC/C=C\CCCCCCCC(=O)SCCNC(=O)CCNC(=O)[C@H](O)C(C)(C)COP(=O)(O)OP(=O)(O)OC[C@H]1O[C@@H](n2cnc3c(N)ncnc32)[C@H](O)[C@@H]1OP(=O)(O)O` [oleoyl-CoA] was tested. Which Km did it give?
Answer: Its Km is 31.2 µM.
